{"source": "patent US12251422B2", "about": "“Compositions and methods for treating neurological and other disorders” (Rush University Medical Center, priority 2018, dated 2025)", "key": {"EAE mice": {"system": "EAE mice", "assay": "Experimental allergic encephalomyelitis (EAE) in C57/BL6 mice", "assay_type": "in vivo, mouse", "settings": "0.1 mg/kg body wt/d intranasal from 10 dpi", "from_the_text": "FIG. 7 (A-V). The wtTIDM, but not mTIDM, peptide protects mice from experimental allergic encephalomyelitis (EAE) and collagen-induced arthritis (CIA). […] Mice (n=6 per group in two independent experiments) were scored daily. […] On 22 dpi, general motor activities were monitored using the Ethovision XT 13.0 Open Field Activity System (Noldus) (B, heat-map images representing overall motor activities; C, distance travelled; D, rearing; E, velocity; F, acceleration) and rotorod (G). Foot print analysis (H, stride length; I, print length; J, sway length; K, toe spread) was also performed, L) CIA was induced in male DBA/1J mice by bovine type II collagen immunization and from 29 dpi, mice were treated with wtTIDM and mTIDM peptides (1 mg/kg body wt/d) via i.p. injection. Mice (n=6 per group in two independent experiments) were scored daily. […] On 60 dpi, general motor activities were monitored by Ethovision System (M, heat-map images representing overall motor activities; N, distance travelled; O, rearing; P, velocity), rotorod (Q) and grip strength (R). Foot print analysis (S, stride length; T, print length; U, sway length; V, toe spread) was also performed. Six mice (n=6 per group) were used in two independent experiments. ap<0.001 & bp<0.05 vs control; cp<0.001 & dp<0.05 vs EAE or CIA by two-sample t-tests.\nFIG. 25 (A-D). Footprint analysis of EAE mice after treatment with wtTIDM and mTIDM peptides. On the walking track, we applied white paper strips and obtained the footprints of mice of different groups (A, control; B, EAE; C, EAE+wtTIDM; D, EAE+mTIDM) on paper using black ink. A total of 30-40 steps for each group were determined. Four different footprint measurements, viz., stride length (SL), print length (PL), sway length (SWL), and toe spread (TS) were calculated in centimeters from the recorded prints of mice. While SL refers the distance between the front edge of two consecutive prints of the same paw, SWL refers the distance between the paws perpendicular to the distance of travel and PL indicates the measurement of length of print area. […]"}, "NF-κB": {"system": "NF-κB", "assay": "NF-κB activation by EMSA in BV-2 microglial cells", "assay_type": "cell-based", "experimental": "FIG. 4(A-S). Effect of wtTIDM and mTIDM peptides on the induction of NF-κB activation and the expression of proinflammatory molecules in microglial cells. BV-2 microglial cells preincubated with 10 μM wtTIDM/mTIDM peptides for 1 h were stimulated with 1 μM fibrillar Aβ1-42 (A-C), 1 μM MPP+ (D-F), 250 ng/ml LTA (G-I), […] LPS (J-L), 1 μM flagellin (M-O), and 1 μM CpG DNA (P-R) under serum-free condition. After 1 h of stimulation, the activation of NF-κB was monitored in nuclear extracts by EMSA (A, fibrillar Aβ; D, MPP+; G, LTA; J, LPS; M, flagellin, P; CpG DNA). After 4 h of stimulation, the mRNA expression of IL-1β (B, E, H, K, N, & Q) and iNOS (C, F, I, L, O, & R) was monitored by real-time PCR (B-C, fibrillar Aβ; E-F, MPP+; H-I, LTA; K-L, LPS; N-O, flagellin; Q-R, CpG DNA) (n=2 replicates/dose in 3 independent experiments). ap<0.001 vs control; bp<0.001 vs stimuli by two-sample t-tests. FIG. 4S is a schematic representation of the relationships in microglia of Toll-Like Receptors, the stimulators tested, wTIDM, MyD88 and NF-κB.\nFIG. 14 (A-D). Effect of wtTIDM and mTIDM peptides on polyIC-mediated activation of NF-κB activation and the expression of proinflammatory molecules in microglial cells. BV-2 microglial cells preincubated with 10 μM wtTIDM/mTIDM peptides for 1 h were stimulated with 50 μM polyIC. A) After 1 h of stimulation, the activation of NF-κB was monitored in nuclear extracts by EMSA. After 4 h of stimulation, the mRNA expression of IL-1β and iNOS was monitored by semi-quantitative RT-PCR (B) and real-time PCR (C, IL-1β; D, iNOS) (n=2 replicates/condition in 3 independent experiments). ap<0.001 vs control; bp<0.001 vs stimuli by two-sample t-tests.\nNuclear extracts were isolated and EMSA was carried out as described before (22, 23)."}}}
{"compound": "CC[C@H](C)[C@H](NC(=O)[C@H](CCCCN)NC(=O)[C@@H](NC(=O)[C@H](CCC(N)=O)NC(=O)[C@H](CCCNC(=N)N)NC(=O)[C@@H](N)CC(=O)O)[C@@H](C)CC)C(=O)N[C@@H](Cc1c[nH]c2ccccc12)C(=O)N[C@@H](Cc1ccccc1)C(=O)N[C@@H](CCC(N)=O)C(=O)N[C@@H](CC(N)=O)C(=O)N[C@@H](CCCNC(=N)N)C(=O)N[C@@H](CCCNC(=N)N)C(=O)N[C@@H](CCSC)C(=O)N[C@@H](CCCCN)C(=O)N[C@@H](Cc1c[nH]c2ccccc12)C(=O)N[C@@H](CCCCN)C(=O)N[C@@H](CCCCN)C(=O)N1CCC[C@H]1C(=O)NCC(=O)N[C@@H](C)C(=O)N[C@@H](Cc1c[nH]cn1)C(=O)N[C@@H](CCC(N)=O)C(=O)N[C@@H](CCCCN)C(=O)O", "note": "[wtTIDM, drqikiwfqnrrmkwkkPGAHQK]", "values": [{"measurement": "clinical symptoms of EAE", "setting": "EAE mice", "result": "strongly inhibited"}, {"measurement": "locomotor activities and footprints in EAE mice", "setting": "EAE mice; 22 dpi", "result": "improved"}, {"measurement": "inhibition of LTA-mediated activation of NF-κB", "setting": "NF-κB; 10 μM peptide 1 h, then 250 ng/ml LTA for 1 h", "result": "inhibited"}, {"measurement": "suppression of NF-κB activation induced by CpG DNA", "setting": "NF-κB; 10 μM peptide 1 h, then 1 μM CpG DNA for 1 h", "result": "remained unable to suppress"}, {"measurement": "suppression of NF-κB activation induced by MPP+", "setting": "NF-κB; 10 μM peptide 1 h, then 1 μM MPP+ for 1 h", "result": "remained unable to suppress"}, {"measurement": "inhibition of fibrillar Aβ-mediated activation of NF-κB", "setting": "NF-κB; 10 μM peptide 1 h, then 1 μM fibrillar Aβ1-42 for 1 h", "result": "inhibited"}, {"measurement": "suppression of NF-κB activation induced by flagellin", "setting": "NF-κB; 10 μM peptide 1 h, then 1 μM flagellin for 1 h", "result": "remained unable to suppress"}, {"measurement": "suppression of NF-κB activation induced by poly IC", "setting": "NF-κB; 10 μM peptide 1 h, then 50 μM polyIC for 1 h", "result": "remained unable to suppress"}, {"measurement": "suppression of NF-κB activation induced by LPS", "setting": "NF-κB; 10 μM peptide 1 h, then 1 mg/ml LPS for 1 h", "result": "remained unable to suppress"}]}
{"compound": "CC[C@H](C)[C@H](NC(=O)[C@H](CCCCN)NC(=O)[C@@H](NC(=O)[C@H](CCC(N)=O)NC(=O)[C@H](CCCNC(=N)N)NC(=O)[C@@H](N)CC(=O)O)[C@@H](C)CC)C(=O)N[C@@H](Cc1c[nH]c2ccccc12)C(=O)N[C@@H](Cc1ccccc1)C(=O)N[C@@H](CCC(N)=O)C(=O)N[C@@H](CC(N)=O)C(=O)N[C@@H](CCCNC(=N)N)C(=O)N[C@@H](CCCNC(=N)N)C(=O)N[C@@H](CCSC)C(=O)N[C@@H](CCCCN)C(=O)N[C@@H](Cc1c[nH]c2ccccc12)C(=O)N[C@@H](CCCCN)C(=O)N[C@@H](CCCCN)C(=O)N1CCC[C@H]1C(=O)NCC(=O)N[C@@H](Cc1c[nH]c2ccccc12)C(=O)N[C@@H](Cc1c[nH]cn1)C(=O)N[C@@H](CCC(N)=O)C(=O)N[C@@H](CC(=O)O)C(=O)O", "note": "[mTIDM, drqikiwfqnrrmkwkkPGWHQD]", "values": [{"measurement": "clinical symptoms of EAE", "setting": "EAE mice", "result": "had no effect"}, {"measurement": "effect on activation of NF-κB induced by any of the stimuli", "setting": "NF-κB; fibrillar Aβ, MPP+, LTA, poly IC, LPS, flagellin, CpG DNA", "result": "had no effect"}]}
